For 6 molecules, EC50 results are on record in US9169310B2 (Zealand Pharma A/S, priority 2010, dated 2015).

Starred links: 1 amine or outer side, 2 acyl side, 3 side chain; linkers in the order of their positions; H or OH if unused. Non-standard residues stand in square brackets, D forms with d. Residues, ends and D or L forms follow the SMILES beside them. Groups on a side chain read outwards from the residue. *: point of attachment. Ala(pyrazol-1-yl) = N[C@@H](Cn1cccn1)C(=O)O; Ala(4-thiazolyl) = N[C@@H](Cc1cscn1)C(=O)O; γGlu = O=C(O)[C@H](CCC(=O)[*:2])N[*:1]; X1 = O=C([C@H](Cn1cncn1)N[*:1])[*:2]; Palmitoyl = CCCCCCCCCCCCCCCC(=O)*; Aib = CC(C)(N)C(=O)O

The target in the test is T1, human GLP-1R (Homo sapiens, UniProt P43220).
T1 construct: expressed in transfected cells
T1 sequence (P43220 24-463): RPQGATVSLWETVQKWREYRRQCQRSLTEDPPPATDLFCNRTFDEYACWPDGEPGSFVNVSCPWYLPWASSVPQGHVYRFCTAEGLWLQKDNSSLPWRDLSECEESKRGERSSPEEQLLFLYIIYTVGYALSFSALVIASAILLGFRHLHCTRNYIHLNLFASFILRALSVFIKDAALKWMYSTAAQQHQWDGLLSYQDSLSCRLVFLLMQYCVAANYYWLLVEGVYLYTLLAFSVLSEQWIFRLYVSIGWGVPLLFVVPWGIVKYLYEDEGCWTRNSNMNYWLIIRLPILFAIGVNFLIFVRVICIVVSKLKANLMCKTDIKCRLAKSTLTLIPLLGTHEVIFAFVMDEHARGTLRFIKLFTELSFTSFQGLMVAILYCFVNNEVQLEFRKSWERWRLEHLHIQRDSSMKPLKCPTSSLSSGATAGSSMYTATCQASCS
In words: GLP-1 receptor efficacy assay (cAMP formation, FlashPlate cAMP kit). In kind it is cell-based. The following applies: HEK293 cells expressing human GLP-1R; cAMP formed, 15 min at 37° C. How it is done:
The 5′-end primers additionally encoded a near Kozak consensus sequence to ensure efficient translation.
48 hr after transfection, cells were seeded for limited dilution cloning and selected with 1 mg/ml G418 in the culture medium.

Regarding `CCCCCCCCCCCCCCCC(=O)N[C@@H](CCC(=O)NCCCC[C@H](NC(=O)[C@H](CO)NC(=O)[C@H](CC(=O)O)NC(=O)[C@H](CC(C)C)NC(=O)[C@H](Cc1ccc(O)cc1)NC(=O)[C@H](CCCCN)NC(=O)[C@H](CO)NC(=O)[C@H](Cc1ccc(O)cc1)NC(=O)[C@H](CC(=O)O)NC(=O)[C@H](CO)NC(=O)[C@@H](NC(=O)[C@H](Cc1ccccc1)NC(=O)[C@@H](NC(=O)CNC(=O)[C@H](Cc1c[nH]cn1)NC(=O)C(C)(C)NC(=O)[C@@H](N)Cc1c[nH]cn1)[C@@H](C)O)[C@@H](C)O)C(=O)N[C@@H](C)C(=O)N[C@@H](C)C(=O)N[C@@H](Cc1c[nH]cn1)C(=O)N[C@@H](CC(=O)O)C(=O)N[C@@H](Cc1ccccc1)C(=O)N[C@H](C(=O)N[C@@H](CCC(=O)O)C(=O)N[C@@H](Cc1c[nH]c2ccccc12)C(=O)N[C@@H](CC(C)C)C(=O)N[C@@H](CC(C)C)C(=O)N[C@@H](CO)C(=O)N[C@@H](C)C(N)=O)C(C)C)C(=O)O` [Compound 1] (H-H[Aib]HGTFTSDYSKYLDSK([γGlu-Palmitoyl])AAHDFVEWLLSA-NH2), the EC50 turned out to be 0.21 nM. This counts as sub-nanomolar.
The result for `CCCCCCCCCCCCCCCC(=O)N[C@@H](CCC(=O)NCCCC[C@H](NC(=O)[C@H](CO)NC(=O)[C@H](CC(=O)O)NC(=O)[C@H](CC(C)C)NC(=O)[C@H](Cc1ccc(O)cc1)NC(=O)[C@H](CCCCN)NC(=O)[C@H](CO)NC(=O)[C@H](Cc1ccc(O)cc1)NC(=O)[C@H](CC(=O)O)NC(=O)[C@H](CO)NC(=O)[C@@H](NC(=O)[C@H](Cc1ccccc1)NC(=O)[C@@H](NC(=O)CNC(=O)[C@H](C)NC(=O)C(C)(C)NC(=O)[C@@H](N)Cc1c[nH]cn1)[C@@H](C)O)[C@@H](C)O)C(=O)N[C@@H](C)C(=O)N[C@@H](C)C(=O)N[C@@H](Cc1c[nH]cn1)C(=O)N[C@@H](CC(=O)O)C(=O)N[C@@H](Cc1ccccc1)C(=O)N[C@H](C(=O)N[C@@H](CCC(=O)O)C(=O)N[C@@H](Cc1c[nH]c2ccccc12)C(=O)N[C@@H](CC(C)C)C(=O)N[C@@H](CC(C)C)C(=O)N[C@@H](CO)C(=O)N[C@@H](C)C(N)=O)C(C)C)C(=O)O` [Compound 17] (H-H[Aib]AGTFTSDYSKYLDSK([γGlu-Palmitoyl])AAHDFVEWLLSA-NH2) reads 0.09 nM.
The figure for `CCCCCCCCCCCCCCCC(=O)N[C@@H](CCC(=O)NCCCC[C@H](NC(=O)[C@H](CO)NC(=O)[C@H](CC(=O)O)NC(=O)[C@H](CC(C)C)NC(=O)[C@H](Cc1ccc(O)cc1)NC(=O)[C@H](CCCCN)NC(=O)[C@H](CO)NC(=O)[C@H](Cc1ccc(O)cc1)NC(=O)[C@H](CC(=O)O)NC(=O)[C@H](CO)NC(=O)[C@@H](NC(=O)[C@H](Cc1ccccc1)NC(=O)[C@@H](NC(=O)CNC(=O)[C@H](CO)NC(=O)C(C)(C)NC(=O)[C@@H](N)Cc1c[nH]cn1)[C@@H](C)O)[C@@H](C)O)C(=O)N[C@@H](C)C(=O)N[C@@H](C)C(=O)N[C@@H](Cc1c[nH]cn1)C(=O)N[C@@H](CC(=O)O)C(=O)N[C@@H](Cc1ccccc1)C(=O)N[C@H](C(=O)N[C@@H](CCC(=O)O)C(=O)N[C@@H](Cc1c[nH]c2ccccc12)C(=O)N[C@@H](CC(C)C)C(=O)N[C@@H](CC(C)C)C(=O)N[C@@H](CO)C(=O)N[C@@H](C)C(N)=O)C(C)C)C(=O)O` [Compound 18] (H-H[Aib]SGTFTSDYSKYLDSK([γGlu-Palmitoyl])AAHDFVEWLLSA-NH2) is 0.09 nM.
The result for `CCCCCCCCCCCCCCCC(=O)N[C@@H](CCC(=O)NCCCC[C@H](NC(=O)[C@H](CO)NC(=O)[C@H](CC(=O)O)NC(=O)[C@H](CC(C)C)NC(=O)[C@H](Cc1ccc(O)cc1)NC(=O)[C@H](CCCCN)NC(=O)[C@H](CO)NC(=O)[C@H](Cc1ccc(O)cc1)NC(=O)[C@H](CC(=O)O)NC(=O)[C@H](CO)NC(=O)[C@@H](NC(=O)[C@H](Cc1ccccc1)NC(=O)[C@@H](NC(=O)CNC(=O)[C@H](Cc1cscn1)NC(=O)C(C)(C)NC(=O)[C@@H](N)Cc1c[nH]cn1)[C@@H](C)O)[C@@H](C)O)C(=O)N[C@@H](C)C(=O)N[C@@H](C)C(=O)N[C@@H](Cc1c[nH]cn1)C(=O)N[C@@H](CC(=O)O)C(=O)N[C@@H](Cc1ccccc1)C(=O)N[C@H](C(=O)N[C@@H](CCC(=O)O)C(=O)N[C@@H](Cc1c[nH]c2ccccc12)C(=O)N[C@@H](CC(C)C)C(=O)N[C@@H](CC(C)C)C(=O)N[C@@H](CO)C(=O)N[C@@H](C)C(N)=O)C(C)C)C(=O)O` [Compound 23] (H-H[Aib][Ala(4-thiazolyl)]GTFTSDYSKYLDSK([γGlu-Palmitoyl])AAHDFVEWLLSA-NH2) reads 0.11 nM.
For the molecule `CCCCCCCCCCCCCCCC(=O)N[C@@H](CCC(=O)NCCCC[C@H](NC(=O)[C@H](CO)NC(=O)[C@H](CC(=O)O)NC(=O)[C@H](CC(C)C)NC(=O)[C@H](Cc1ccc(O)cc1)NC(=O)[C@H](CCCCN)NC(=O)[C@H](CO)NC(=O)[C@H](Cc1ccc(O)cc1)NC(=O)[C@H](CC(=O)O)NC(=O)[C@H](CO)NC(=O)[C@@H](NC(=O)[C@H](Cc1ccccc1)NC(=O)[C@@H](NC(=O)CNC(=O)[C@H](Cn1cncn1)NC(=O)C(C)(C)NC(=O)[C@@H](N)Cc1c[nH]cn1)[C@@H](C)O)[C@@H](C)O)C(=O)N[C@@H](C)C(=O)N[C@@H](C)C(=O)N[C@@H](Cc1c[nH]cn1)C(=O)N[C@@H](CC(=O)O)C(=O)N[C@@H](Cc1ccccc1)C(=O)N[C@H](C(=O)N[C@@H](CCC(=O)O)C(=O)N[C@@H](Cc1c[nH]c2ccccc12)C(=O)N[C@@H](CC(C)C)C(=O)N[C@@H](CC(C)C)C(=O)N[C@@H](CO)C(=O)N[C@@H](C)C(N)=O)C(C)C)C(=O)O` [Compound 25] (H-H[Aib][X1]GTFTSDYSKYLDSK([γGlu-Palmitoyl])AAHDFVEWLLSA-NH2), the concentration giving a half-maximal response (EC50) worked out at 0.09 nM.
The result for `CCCCCCCCCCCCCCCC(=O)N[C@@H](CCC(=O)NCCCC[C@H](NC(=O)[C@H](CO)NC(=O)[C@H](CC(=O)O)NC(=O)[C@H](CC(C)C)NC(=O)[C@H](Cc1ccc(O)cc1)NC(=O)[C@H](CCCCN)NC(=O)[C@H](CO)NC(=O)[C@H](Cc1ccc(O)cc1)NC(=O)[C@H](CC(=O)O)NC(=O)[C@H](CO)NC(=O)[C@@H](NC(=O)[C@H](Cc1ccccc1)NC(=O)[C@@H](NC(=O)CNC(=O)[C@H](Cn1cccn1)NC(=O)C(C)(C)NC(=O)[C@@H](N)Cc1c[nH]cn1)[C@@H](C)O)[C@@H](C)O)C(=O)N[C@@H](C)C(=O)N[C@@H](C)C(=O)N[C@@H](Cc1c[nH]cn1)C(=O)N[C@@H](CC(=O)O)C(=O)N[C@@H](Cc1ccccc1)C(=O)N[C@H](C(=O)N[C@@H](CCC(=O)O)C(=O)N[C@@H](Cc1c[nH]c2ccccc12)C(=O)N[C@@H](CC(C)C)C(=O)N[C@@H](CC(C)C)C(=O)N[C@@H](CO)C(=O)N[C@@H](C)C(N)=O)C(C)C)C(=O)O` [Compound 28] (H-H[Aib][Ala(pyrazol-1-yl)]GTFTSDYSKYLDSK([γGlu-Palmitoyl])AAHDFVEWLLSA-NH2) reads 0.11 nM.
